Data from US6849576B2, “Plant-activating agent” (Kao Corporation, priority 2000, dated 2005).

The compounds below were run on Chlorella vulgaris (assay: Reproduction of green cells: chlorella cultivation, cell count at 8th day). Conditions: chlorella cell number at 8th day (192 hours); relative value, control area = 100; concentrations (ppm) as in Table 1.
Format: cell-based
Method: (§1) In case of a unicellular organism, an individual of this organism can be used itself as a green cell. […] When chlorella is used, a test substance acting as a plant-activating agent is added to an inorganic salt medium for chlorella (test area), and the number of cells (cells/ml) when cultivation is conducted for a certain period can be compared with the number of cells (cells/ml) in the non-added system cultivated under the same condition (control area), for calculation. Further, cells in the form of callus can also be used. As the callus, a liverwort (Harchantia polymorpha L.) callus may be exemplified. When a callus is used, the test substance acting as a plant-activating agent is added to e.g. a sterilized medium for calluses (test area), and the weight of callus when cultivation is conducted for a certain period can be compared with the weight of callus of the non-added system cultivated under the same condition (control area), for calculation. In any case, the concentration of the test substance in the test area is not limited but suitably from 0.1 to 1000 ppm in terms of effective components.
Herein, the substance acting as the plant-activating agent has been added in a concentration of 10 ppm in terms of effective components into a culturing solution in the test area. This substance is not added into the control area. After sterilization, the temperature of the medium is returned to a normal temperature. The number of Chlorella vulgaris which has been sub-cultivated previously is counted under a microscope using a blood cell counting chamber of Thoma, and chlorella is added to the sterilized medium so as to have a concentration of 1.0×10^5 (cells/ml). These operations are conducted in a clean bench when the sterilized condition is necessary. Cultivation is carried out in a shaking incubator rotating at 110 rpm at 23° C. under continuous illumination (with illuminance of 10 klx.) with carbon dioxide and humidity under natural conditions.
This measurement is repeated five times in each area, and the average values (P0, P1) are made as the number of chlorella after cultivation.

Compound	Improved degree in reproduction of green cells
O=C([O-])CCC(=O)[O-].[Na+].[Na+] [Comparative product 1-2, Sodium succinate, reference compound]	90
O=C([O-])CN(CCN(CC(=O)[O-])CC(=O)[O-])CC(=O)[O-].[Na+].[Na+].[Na+].[Na+] [Comparative product 1-3, EDTA-4Na, reference compound]	92
Cc1ncc(CO)c(CO)c1O [Inventive product 1-18, Vitamin B6]	118
Citric acid monooleyl axnide [Inventive product 1-8]	148
POE(1) stearyl ether [Inventive product 1-11]	160
POE(20) sorbitan oleate [Comparative product 1-1, reference compound]	85
Stearic acid diglyceride [Inventive product 1-13]	140
Stearic acid monoglyceride [Inventive product 1-23]	140
Vitamin B12 [Inventive product 1-19]	110

Same assay, conditions: chlorella cell number at 8th day (192 hours); relative value, control area = 100; concentrations (ppm) as in Table 2

Compound	Improved degree in reproduction of green cells
O=C([O-])CCC(=O)[O-].[Na+].[Na+] [Comparative product 2-2, Sodium succinate, reference compound]	92
O=C([O-])CN(CCN(CC(=O)[O-])CC(=O)[O-])CC(=O)[O-].[Na+].[Na+].[Na+].[Na+] [Comparative product 2-3, EDTA-4Na, reference compound]	90
CCCCCCCCCCCCCCCCCC(=O)O [Inventive product 2-1, Stearyl acid]	156
Cc1ncc(CO)c(CO)c1O [Inventive product 2-16, Vitamin B6]	122
POE(1) stearyl ether [Inventive product 2-9]	153
POE(20) sorbitan oleate [Comparative product 2-1, reference compound]	80
Stearic acid diglyceride [Inventive product 2-11]	136
Vitamin B12 [Inventive product 2-17]	118

The compounds below were run on liverwort callus cells (assay: Reproduction of green cells: liverwort callus cultivation, fresh weight at 10th day). Conditions: liverwort callus fresh weight at 10th day (240 hours); relative value, control area = 100; concentrations (ppm) as in Table 7.
Format: cell-based, liverwort (Harchantia polymorpha L.)
Method: as §1
100 ml of the medium (MSK2 medium) for liverworts were placed into a 500-ml Erlenmeyer flask, and the flask was capped with a silicon cap having its ventilative property and placed into an autoclave (at a high temperature, under a high pressure, and a sterilized oven) to sterilize the medium (for 20 minutes). Herein, the substance acting as the plant-activating agent was added in a concentration shown in Table 7 into a culturing solution in the test area. After sterilization, the temperature of the medium was returned to a normal temperature. 2 ml of liverwort callus cells under a steady state, which had been sub-cultivated previously, were sucked up by a 2-ml Komagome pipette (measuring pipet) and incubated to the sterilized medium. These operations are conducted in a clean bench when sterilized condition is necessary. Cultivation is carried out in a shaking incubator rotating at 110 rpm at 23° C. under continuous illumination (with illuminance of 10 klx.) with carbon dioxide and humidity under natural conditions. Tenth day (after 240 hours) after starting the cultivation, the whole culturing solution in each area was filtrated under suction, and the fresh weight (raw weight) (g) of the callus cell was measured. This was made as the amount in reproduction of green cells, and the improved degree in reproduction of green cells was measured by the above-described formula.

Compound	Improved degree in reproduction of green cells
O=C([O-])CCC(=O)[O-].[Na+].[Na+] [Comparative product 5-2, Sodium succinate, reference compound]	91
O=C([O-])CN(CCN(CC(=O)[O-])CC(=O)[O-])CC(=O)[O-].[Na+].[Na+].[Na+].[Na+] [Comparative product 5-3, EDTA-4Na, reference compound]	90
CCCCCCCCCCCCCCCCCC(=O)O [Inventive product 5-1, Stearic acid]	120
CCCCCCCCCCCCCCCC(=O)O [Inventive product 5-2, Palmitic acid]	110
O=S(=O)([O-])CCO.[Na+] [Inventive product 5-3, Sodium isethionate]	115
N[C@@H](CCC(=O)[O-])C(=O)[O-].[Na+].[Na+] [Inventive product 5-4, Sodium glutamate]	105
CCCCCCCCCCCCCCCCCCO [Inventive product 5-5, Stearyl alcohol]	140
CCCCCCCC/C=C\CCCCCCCCNC(=O)CC(O)(CC(=O)O)C(=O)O (stereo not drawn) [Inventive product 5-8, Citric acid oleyl amide]	125
CCCCCCCCCCCCCCCCCCOCCCCCCCCCCCCCCCCCC [Inventive product 5-9, Distearyl ether]	135
CCCCCCCCCCCCCCCCCCOC(=O)CCCCCCCCCCCCCCCCC [Inventive product 5-10, Stearyl sterate]	125
CCCCCCCCCCCCCCCCCC(=O)OCC(CO)(CO)CO [Inventive product 5-14, Pentaerythritol monostearate]	108
CCCCCCCCCCCCCCCCCCOC(=O)C(O)CO (stereo not drawn) [Inventive product 5-17, Glyceric acid stearyl ester]	108
Cc1ncc(CO)c(CO)c1O [Inventive product 5-18, Vitamin B6]	107
CC(C)C[C@H](N)C(=O)O [Inventive product 5-20, L-leucine]	110
O=C(O)C(O)C(O)C(=O)O (stereo not drawn) [Inventive product 5-21, Tartaric acid]	110
O=C(O)CCCC[C@@H]1SC[C@@H]2NC(=O)N[C@@H]21 [Inventive product 5-24, Biotin]	106
Citric acid monostearate [Inventive product 5-7]	135
POE(1) stearyl ether [Inventive product 5-11]	133
POE(20) sorbitan oleate [Comparative product 5-1, reference compound]	72
Stearic acid diglyceride [Inventive product 5-13]	126
Stearic acid monoglyceride [Inventive product 5-23]	118
Vitamin B12 [Inventive product 5-19]	108
